According to PMC5861220, “The Cytochrome P450-Mediated Metabolism Alternation of Four Effective Lignans From Schisandra chinensis in Carbon Tetrachloride-Intoxicated Rats and Patients With Advanced Hepatocellular Carcinoma” (Frontiers in Pharmacology, 2018):
Where two headings read alike, the source gives them in different places.

Assays:
[1] = Pharmacokinetics of four lignans in rats after oral SC alcoholic extract; assay type: in vivo, rat; conditions: for AUC(0-t) / Cmax / half-life / CL/F / MRT last / Tmax: Sprague-Dawley, rat, plasma, po, 1.5 g/kg/day, oral SC alcoholic extract 1.5 g/kg/day for 4 days, n = 5; for CL/F: read-out: CLz/F (converted); for MRT last: read-out: MRT(0−t); for Tmax: read-out: Tmax
Description: The pharmacokinetic profiles of four lignans were studied in ALI rat after multiple oral administrations of SC alcoholic extract at dose of 1.5 g/kg/day. After the ALI rat was established, SC alcoholic extract suspended in 0.5% sodium carboxymethyl cellulose was given to ALI rats and the control via oral gavage once a day for 4 consecutive days. Before the last dosing, rats were fasted for 12 h while water was taken freely. Blood samples were collected at 0, 0.25, 0.5, 1, 2, 3, 4, 6, 8, 12, 24, 36, and 48 h after the last dosing. A cannula was surgically placed into the jugular vein for collection of blood samples (about 0.1 mL) and blood loss compensation using sterile isotonic saline in the pharmacokinetic study. Plasma was separated by centrifugation and stored at −20°C until analysis. Plasma concentrations of the four lignans were quantified using HPLC-MS analysis developed according to the reported method (Wang et al., [2008]).
Data fitting and pharmacokinetic parameter calculations were carried out using the Winnolin software. Non-compartmental analysis was used to calculate the pharmacokinetic parameters. Parameters, such as AUC and MRT, were calculated using statistical moment method.

[2] = test system: rat liver; assay: In situ hepatic perfusion of four lignans; assay type: in vivo; conditions: hepatic perfusion 60 min, 10 μM, n = 3
Description: (§1) In situ liver perfusion was performed similarly as the method described previously (Uraki et al., [2016]). […] The perfusate consisted of Krebs–Hensleit buffer (pH 7.4) containing sodium taurocholate (4.75 mg/L), 1% bovine serum albumin, and glucose (1.2 g/L) was oxygenated using carbogen, 95% O2/5% CO2. The perfusate at 37°C was infused into the portal vein at a flow rate of 30 mL/min in a recirculatory manner. After 10-min equilibration, four schisandra lignans were added to the reservoir (final concentration of 10 μM). Perfusate (0.5 mL) and bile samples were collected at 0, 10, 20, 30, 40, 50, and 60 min after the addition of lignans. The same volume of blank perfusion buffer was immediately added to the reservoir after collection of the perfusate samples. After hepatic perfusion, rat was sacrificed and liver was removed, blotted dry, and weighed.

[3] = In situ hepatic perfusion of four lignans; assay type: in vivo, rat; conditions: Sprague-Dawley, rat, perfusate, perfusate AUC(0−1h), n = 3
Description: as §1

[4] = Identification of CYP450 isozymes in lignan metabolism, rat liver microsomes (no inhibitor / overall); assay type: in vitro ADME; conditions: rat, 5 μM, pH 7.4
Description: (§2) The CYP450s involved in the metabolism of schisandrin, schisantherin A, deoxyshisandrin and γ-schisandrin in rat or human liver microsomes were confirmed by comparison of the metabolism ratio before and after the addition of selective inhibitors to CYP450 isozymes. […] The supernate was injected to HPLC-MS for analysis of the four lignans.

[5] = Identification of CYP450 isozymes in lignan metabolism, human liver microsomes (no inhibitor); assay type: in vitro ADME; conditions: human, 5 μM, pH 7.4
Description: as §2

[6] = Transport across Caco-2 cell monolayer; assay type: in vitro ADME; conditions: human, Caco-2
Description: Caco-2 cell (passage 38) was used in the transport experiments. Cells were seeded on polycarbonate filters (12 mm diameter, pore size […]) at 1 × 10^5/cm^2. The cell monolayer was formed 21 days post seeding when the transepithelial electrical resistance (TEER) was above 1,000 Ω• cm^2. Three concentration levels (5, 10, and 50 μM) were set for the four schisandra lignans in the study. After preincubation for 1 h at 37°C, the solution of the four lignans was respectively added to the apical (0.4 mL) or basolateral (0.6 mL) chamber for absorptive (AP → BL) and secretive (BL → AP) permeability test. At the specified timepoints (0.5, 1, 1.5 and 2 h), 50 μL samples (n = 3) were withdrawn from receiver chamber, and meanwhile, 50 μL fresh buffer was added. The four lignans were determined by HPLC-MS method.
The efflux rate (ER) was calculated by the formula ER = Papp (BL → AP)/Papp(AP → BL).

[7] = test system: rat intestine (jejunum segment); assay: In situ intestinal perfusion of four lignans; assay type: in vivo; conditions: for Perfusate (Percent of the initial dose) / Plasma (Percent of the initial dose) / Intestine (Percent of the initial dose) / Pblood / Plumen: 50 μM, n = 3; for Perfusate (Percent of the initial dose): intestinal perfusion 60 min; for Plasma (Percent of the initial dose) / Intestine (Percent of the initial dose): intestinal perfusion; for Plasma (Percent of the initial dose): mesenteric vein blood
Description: The surgical procedures of intestinal perfusion were conducted according to those published reports (Savina et al., [1981]). Hank's balanced salt solution (HBSS, pH 7.4) with four schisandra lignans (50 μM) at 37°C was infused into the jejunum segment at rate of 0.3 mL/min. Phenol Red (50 μM) was added to serve as a nonabsorbable marker for measuring water flux. Blood samples from mesenteric vein and perfusate were collected at 5-min interval. The plasma separated by centrifugation and perfusate was stored at −20°C until HPLC-MS analysis.
The permeability of four lignans across the rat intestine was calculated based on the disappearance of parent drug from the lumen (Plumen) as well as the appearance of the drug in blood (Pblood) using the following equations (Singhal et al., [1998]):
(1) Plumen = −Q/2πrlLnCout/Cin
(1) Pblood = ΔMB/Δt/2πrl{C}
where r is the radius of the perfused intestinal lumen; l is the length of the segment; Q is the flow rate of perfusate; Cin is the concentration of drug at the start of perfusion; and Cout is the steady-state concentration of drug exiting the lumen. ΔMB/Δt is the rate of drug appearance in mesenteric blood; and {C} is the logarithmic mean concentration of drug in the lumen.

SMILES: COc1cc2c(c(OC)c1OC)-c1c(cc3c(c1OC)OCO3)C[C@H](C)[C@H](C)C2 [γ-Schisandrin, γ-schisandrin]
- Reduction of systemic clearance (CLz/F) ([1]; CCl4 intoxicated rats vs control rats): ~54%
- AUC(0-t) ([1]; CCl4-intoxicated rats): 11600 ± 3090 ng·h/mL
- Cmax ([1]; CCl4-intoxicated rats): 628 ± 164 ng/mL
- half-life ([1]; CCl4-intoxicated rats): 14.5 ± 5.05 h
- CL/F ([1]; CCl4-intoxicated rats): 25.2 mL/min/kg
- MRT last ([1]; CCl4-intoxicated rats): 15.9 ± 1.24 h
- Tmax ([1]; CCl4-intoxicated rats): 4.2 ± 1.79 h
- AUC(0-t) ([1]; Control (normal) rats): 5220 ± 1430 ng·h/mL
- Cmax ([1]; Control (normal) rats): 182 ± 103 ng/mL
- half-life ([1]; Control (normal) rats): 15.4 ± 2.52 h
- CL/F ([1]; Control (normal) rats): 54.3 mL/min/kg
- MRT last ([1]; Control (normal) rats): 16.5 ± 0.94 h
- Tmax ([1]; Control (normal) rats): 6.4 ± 0.89 h
- Total amount of analyte in bile ([2]; CCl4-intoxicated rats): 1.19 ± 0.28 µg
- Total amount of analyte in liver ([2]; CCl4-intoxicated rats): 14.25 ± 1.36 µg
- Total amount of analyte in bile ([2]; Control rats): 1.37 ± 0.14 µg
- Total amount of analyte in liver ([2]; Control rats): 11.10 ± 1.31 µg
- AUC at 10 μM ([3]; pH 7.4, CCl4-intoxicated rats): 3740 ± 70 ng·h/mL
- AUC at 10 μM ([3]; pH 7.4, Control rats): 3190 ± 70 ng·h/mL
- Metabolism rate [4]: 79.6 ± 6.5 nmol/min/mg
- Metabolism rate [5]: 194.1 ± 12.9 nmol/min/mg
- Papp A→B at 2 h, 5 μM ([6]; 5 μM): 1.17 ± 0.16 ×10⁻⁶ cm/s
- Papp B→A at 2 h, 5 μM ([6]; 5 μM): 1.32 ± 0.14 ×10⁻⁶ cm/s
- efflux ratio at 2 h, 5 μM ([6]; 5 μM, ER = Papp (BL → AP)/Papp(AP → BL)): 1.13
- Papp A→B at 2 h, 10 μM ([6]; 10 μM): 1.18 ± 0.09 ×10⁻⁶ cm/s
- Papp B→A at 2 h, 10 μM ([6]; 10 μM): 1.34 ± 0.11 ×10⁻⁶ cm/s
- efflux ratio at 2 h, 10 μM ([6]; 10 μM, ER = Papp (BL → AP)/Papp(AP → BL)): 1.14
- Papp A→B at 2 h, 50 μM ([6]; 50 μM): 1.22 ± 0.16 ×10⁻⁶ cm/s
- Papp B→A at 2 h, 50 μM ([6]; 50 μM): 1.32 ± 0.2 ×10⁻⁶ cm/s
- efflux ratio at 2 h, 50 μM ([6]; 50 μM, ER = Papp (BL → AP)/Papp(AP → BL)): 1.08
- Perfusate (Percent of the initial dose) ([7]; CCl4-intoxicated rats): 91.92 ± 1.69% of the initial dose
- Plasma (Percent of the initial dose) ([7]; CCl4-intoxicated rats): 0.82 ± 0.06% of the initial dose
- Intestine (Percent of the initial dose) ([7]; CCl4-intoxicated rats): 1.87 ± 0.20% of the initial dose
- Pblood ([7]; CCl4-intoxicated rats): 0.066 ± 0.018 × 10^−4 cm/s
- Plumen ([7]; CCl4-intoxicated rats): 2.540 ± 0.423 × 10^−4 cm/s
- Perfusate (Percent of the initial dose) ([7]; Control rats): 92.57 ± 1.67% of the initial dose
- Plasma (Percent of the initial dose) ([7]; Control rats): 0.84 ± 0.09% of the initial dose
- Intestine (Percent of the initial dose) ([7]; Control rats): 1.66 ± 0.27% of the initial dose
- Pblood ([7]; Control rats): 0.052 ± 0.009 × 10^−4 cm/s
- Plumen ([7]; Control rats): 2.543 ± 0.174 × 10^−4 cm/s
- Increase of remaining amount in perfusate ([7]; intestinal autoperfusion (60 min), CCl4-treated rats vs control): not changed
